These results are taken from ChEMBL document CHEMBL1154275, “Synthesis and biological evaluation of new heterocyclic quinolinones as anti-parasite and anti-HIV drug candidates” (Bioorg Med Chem Lett, 2009).

One data set concerns Trichomonas vaginalis. Description: Antitrichomonal activity against Trichomonas vaginalis TVR79 after 48 hrs by optical microscopy. It counts as functional, organism-based.
Data set [1] has as its system Leishmania donovani. In words: Antileishmanial activity against Leishmania donovani MHOM/IN/78/80/DD8 promastigote by alamar blue method. The class given is functional, organism-based. For orientation: Resazurin is reduced to fluorescent resorufin, in cell work by metabolically active cells.
Data set [2] deals with Human immunodeficiency virus 2. In words: Antiviral activity against HIV2 ROD infected in human MT4 cells after 4 days by MTT assay. The class given is functional, organism-based, ISOLATE ROD.
In the next data set the test system is MT4. Description: (§1) Cytotoxicity against human MT4 cells after 4 days by MTT assay. The class given is cell-based. As to conditions: mt4, 96 h; call rule not given here.
Data set [3] concerns Human immunodeficiency virus 1. In words: Antiviral activity against HIV1 3B infected in human MT4 cells after 4 days by MTT assay. It counts as functional, organism-based. A general note: Tetrazolium assays rely on reduction of a dye to a coloured formazan, in cell work by metabolically active cells.
For data set [4], the system named is Leishmania donovani. In words: Antileishmanial activity against Leishmania donovani MHOM/IN/78/80/DD8 amastigote by alamar blue method. It counts as functional, organism-based.
The subject of the next data set is Plasmodium falciparum. Description: Antimalarial activity against chloroquine, pyrimethamine, proguanil-resistant Plasmodium falciparum infected in human erythrocytes after 48 hrs by flow cytometry. The class given is functional, organism-based. A general note: A flow cytometer gives signals particle by particle.
The next data set relates to THP-1. Description: Cytotoxicity against human THP1 cells after 72 hrs by propidium iodide staining-based flow cytometry. The class given is cell-based.
Data set [5] can be described thus: Selectivity index, ratio of IC50 for human THP1 cells to IC50 for Plasmodium falciparum. It counts as toxicity, cell-based, THP-1.
The nature of data set [6]: as §1. Conditions: MT4 cells. It counts as cell-based.
Setting [7] is: Trichomonas vaginalis, TVR79, 48 h, read-out: IC50.
[8] abbreviates: Leishmania donovani, MHOM/IN/78/80/DD8, read-out: IC50.
The mark [9] stands for this setting: Human immunodeficiency virus 2, ISOLATE ROD, MT4, 96 h, read-out: EC50.
Setting [10] is: Human immunodeficiency virus 1, 3B, MT4, 96 h, read-out: EC50.
[11] abbreviates: Plasmodium falciparum, 48 h, read-out: IC50.
[12] abbreviates: Homo sapiens, THP-1, 72 h, read-out: IC50.

Broadly, the IC50 is the concentration that inhibits the measured activity by half. One may read the EC50 as the concentration needed to bring the measured effect to its halfway point. The CC50 is the concentration at which the toxic effect on the cells reaches its halfway point. Lower therefore signals greater toxicity to the cells.

As for `O=c1cc[nH]c2ccc3[nH]ncc3c12`, the IC50 entry in the data set with Trichomonas vaginalis, with Leishmania donovani [1], in the data set on Leishmania donovani [4], in the data set on Plasmodium falciparum and in the data set with THP-1 (thp-1) was “ND(Insoluble)” in each case. In addition, the EC50 entry in data set [2] (mt4) and in data set [3] (mt4) was “ND(Insoluble)” in each case. Further, in the data set with MT4, the CC50 entry is “ND(Insoluble)”. Moreover, the selectivity index result in data set [5] (thp-1) is listed as “ND(Insoluble)”.

With `O=c1cc[nH]c2ccc3ncsc3c12`, the IC50 entry in the data set on Trichomonas vaginalis, in the data set on Leishmania donovani [1], with Leishmania donovani [4], with Plasmodium falciparum and in the data set on THP-1 (thp-1) was “ND(Insoluble)” each time. In addition, the 50% effective concentration (EC50) entry in data set [2] (mt4) and in data set [3] (mt4) was “ND(Insoluble)” each time. Further, the CC50 entry with MT4 is reported as “ND(Insoluble)”. In addition, the selectivity index result in [5] (thp-1) was “ND(Insoluble)”.

For the compound `O=c1cc[nH]c2ccc3nn[nH]c3c12`, the IC50 result in the data set on Trichomonas vaginalis, in the data set with Leishmania donovani [1], with Leishmania donovani [4], with Plasmodium falciparum and in the data set with THP-1 (thp-1) was “ND(Insoluble)” each time. The EC50 result in data set [2] (mt4) and in data set [3] (mt4) was “ND(Insoluble)” throughout. Further, the 50% cytotoxic concentration (CC50) result in the data set with MT4 is “ND(Insoluble)”. Besides, the selectivity index result in data set [5] (thp-1) was “ND(Insoluble)”.

With `CC1(C)OC(=O)C(=CNc2ccccc2[N+](=O)[O-])C(=O)O1`, the IC50 in the data set on Trichomonas vaginalis (setting [7]) is greater than 200 µM; with Leishmania donovani [1] (setting [8]) it was greater than 200 µM; in the data set with Leishmania donovani [4] (setting [8]) it was greater than 200 µM; in the data set with Plasmodium falciparum (setting [11]), greater than 500 µM; in the data set with THP-1 (setting [12]) it was greater than 500 µM. Moreover, the EC50 was no less than 260 µM in data set [2] (setting [9]) and greater than 411 µM in [3] (setting [10]). This compound also returned a CC50 at 96 h in data set [6] of no less than 411 µM. Besides, the selectivity index result in [5] (thp-1) is on record as “Not Active”.

Take `CN(C)c1nc2cc3[nH]ccc(=O)c3cc2o1`: the IC50 with Trichomonas vaginalis (setting [7]) is greater than 125 µM; with Leishmania donovani [1] (setting [8]), greater than 250 µM; with Leishmania donovani [4] (setting [8]), greater than 100 µM; in the data set with Plasmodium falciparum (setting [11]), 40 µM; in the data set on THP-1 (setting [12]), greater than 125 µM. The EC50 in data set [2] (setting [9]) and in [3] (setting [10]) was greater than 324 µM in each case. The CC50 at 96 h in data set [6] is greater than 324 µM. In addition, the selectivity index in [5] (human, THP-1 cells) is greater than 3.1.
